Here are results for seven molecules from patent publication US5432164A, “C2,N^6 -disubstituted adenosine derivatives” (Novo Nordisk A/S, priority 1991, dated 1995).

The target of assay [1] is T1, adenosine A1 receptor (Rattus norvegicus, UniProt P25099).
T1 construct: from tissue
T1 sequence (P25099 1-326): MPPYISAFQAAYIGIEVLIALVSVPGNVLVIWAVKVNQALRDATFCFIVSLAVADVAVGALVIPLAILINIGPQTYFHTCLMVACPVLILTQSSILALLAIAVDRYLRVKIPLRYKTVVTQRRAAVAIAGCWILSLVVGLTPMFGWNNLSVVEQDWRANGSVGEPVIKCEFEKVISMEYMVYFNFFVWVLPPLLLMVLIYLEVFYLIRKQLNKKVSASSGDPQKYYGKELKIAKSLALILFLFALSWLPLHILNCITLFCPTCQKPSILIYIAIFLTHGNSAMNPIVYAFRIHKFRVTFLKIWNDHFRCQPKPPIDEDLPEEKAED
Briefly: In vitro binding to adenosine A1 receptor, radioligand [3H]-L-PIA. The conditions noted are these: for Ki: [3H]-L-PIA radioligand; for Ratio A2/A1: ratio of Ki A2/A1. An excerpt:
(§1) Evaluation of in vitro binding to adenosine A1 and A2 receptors.

Assay [2] deals with T2, adenosine A2 receptor (Rattus norvegicus, UniProt P30543).
T2 construct: from tissue
T2 sequence (P30543 whole entry): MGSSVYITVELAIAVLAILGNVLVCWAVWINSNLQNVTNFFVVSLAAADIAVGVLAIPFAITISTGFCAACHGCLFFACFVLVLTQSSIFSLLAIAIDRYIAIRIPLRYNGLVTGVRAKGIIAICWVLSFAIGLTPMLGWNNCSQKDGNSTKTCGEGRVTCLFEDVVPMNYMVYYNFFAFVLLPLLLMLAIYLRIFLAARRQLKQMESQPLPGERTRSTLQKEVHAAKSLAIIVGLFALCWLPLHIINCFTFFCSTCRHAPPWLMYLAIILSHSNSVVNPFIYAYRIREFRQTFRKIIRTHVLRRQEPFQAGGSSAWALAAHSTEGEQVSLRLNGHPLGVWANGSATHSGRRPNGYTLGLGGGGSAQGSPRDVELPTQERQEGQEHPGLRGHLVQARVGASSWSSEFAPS
Briefly: In vitro binding to adenosine A2 receptor, radioligand [3H]-CGS 21680.
From the text: as §1

In assay [3] the test system is mice. Put plainly: DMCM induced seizures in mice, i.p. 30 min (protection against clonic convulsions). The format is in vivo, male NMRI mice. The note with it: Mus musculus, ip, 0.5 h, read-out: DMCM-ind. seizures (ED50, mg/kg). On the procedure:
DMCM INDUCED SEIZURES IN MICE, I.P.30 min.
DMCM, 15 mg/kg, i.p., clonic convulsions
DMCM is an inverse agonist at the benzodiazepine receptor, presumably producing seizures by decreasing the potency of inhibition of the GABA receptor/benzodiazepine receptor/chloride ionophore complex (1).
15 mg/kg of DMCM dissolved in 0.02N HCl (1 mg/ml) is administered i.p. in a volume of 300 μl to male NMRI mice weighing 20±2 g. This induces two different responses: a) some animals manifest a brief loss of righting reflexes or take up an upright position in which they have a mild short clonus of the upper extremities, b) other animals manifest intense clonic and tonic convulsions of all extremities often followed by death. DMCM is administered 30 min. after an intraperitoneal injection of a test compound. The latency time for the presence of intense clonic and tonic convulsions and death is noted until 15 min. after administration of DMCM. At least 5 doses of each test compound are tested with 8 mice per dose.
This method is described in more detail in Eur. J. Pharmacol. 94, 117-124, 1983.

Assay [4] relates to A1 receptor. The note with it: literature, in words; cited from earlier work.
The mark [5] stands for this setting: [3H]-CGS 21680 radioligand, read-out: A2 Receptor Binding (Ki).
The mark [6] stands for this setting: mice, test compound i.p. 30 min before DMCM 15 mg/kg i.p., dose protecting 50% against clonic convulsions.

Where two headings read alike, the source gives them in different places.

The Ki is a dissociation constant, usually derived from enzyme kinetics or from competition with a known ligand. For the molecule `OC[C@H]1O[C@@H](n2cnc3c(NN4CCCCC4)nc(Cl)nc32)[C@H](O)[C@@H]1O` [Example 5, 2-Chloro-N-(1-piperidinyl)adenosine], the inhibitory constant (Ki) in assay [1] is 4 nM; in assay [2] (setting [5]), 691 nM. The “Ratio A2/A1” value in assay [1] came to 173. Moreover, the ED50 in assay [3] (setting [6]) came to 0.1 mg/kg.

For the molecule `OC[C@H]1O[C@@H](n2cnc3c(NC4CCCC4)ncnc32)[C@H](O)[C@@H]1O` [CPA, N-(cyclopentyl)adenosine, reference compound], affinity in assay [2] was put at a Ki of 173 nM. In addition, in assay [3], the ED50 worked out at 0.2 mg/kg.

For `OC[C@H]1O[C@@H](n2cnc3c(NN4CCCCC4)nc(F)nc32)[C@H](O)[C@@H]1O` [Example 9, 2-Fluoro-N-(1-piperidinyl)adenosine], in assay [1], affinity was put at a Ki of 4 nM and the “Ratio A2/A1” value was determined as 289. Besides, in assay [2] (setting [5]), the Ki amounted to 1140 nM. Further, the ED50 in assay [3] (setting [6]) is 0.7 mg/kg.

With `OC[C@H]1O[C@@H](n2cnc3c(NN4CCC(Oc5ccccc5)CC4)nc(Cl)nc32)[C@H](O)[C@@H]1O` [Example 17, 2-Chloro-N-[4-phenoxy-1-piperidinyl]adenosine], the “Ratio A2/A1” value in assay [1] amounted to 857. Moreover, the Ki in assay [2] (setting [5]) amounted to 1200 nM. Also, the ED50 in assay [3] (setting [6]) amounted to 0.9 mg/kg.

Regarding `CC(Cc1ccccc1)Nc1ncnc2c1ncn2[C@@H]1O[C@H](CO)[C@@H](O)[C@H]1O` (stereo partly drawn) [L-PIA, N-(1-phenyl-2-propyl)adenosine, reference compound], in assay [3], the ED50 amounted to 0.1 mg/kg.

Turning to `OC[C@H]1O[C@@H](n2cnc3c(NC4CCCC4)nc(Cl)nc32)[C@H](O)[C@@H]1O` [2-chloro-N-cyclopentyladenosine], in assay [4], the “selectivity for the A1 receptor over the A2 receptor” value is listed as “most selective for the A1 receptor over the A2 receptor”.

In the case of `OC[C@H]1O[C@@H](n2cnc3c(NN4CCCC(Oc5ccccc5)C4)nc(Cl)nc32)[C@H](O)[C@@H]1O` (stereo partly shown) [Example 16, 2-Chloro-N-(3-phenoxy-1-piperidinyl)adenosine], the inhibition constant Ki in assay [1] stood at 11 nM; in assay [2] (setting [5]), 1730 nM. In assay [1], the “Ratio A2/A1” value was 158. In addition, the ED50 in assay [3] (setting [6]) amounted to 1 mg/kg.
